Measurements from patent US10329518B2, “Anionic surfactants” (Novus International Inc., priority 2015, dated 2019).
Where two headings read alike, the source gives them in different places.

Legend:
[1] = Ross-Miles foam test (ASTM D1173-07); assay type: physicochemical; conditions: 1 wt % solution
Protocol: The Ross-Miles foam test was performed according to the test protocol described in ASTM D1173-07. […] 50 mL of each surfactant solution (1 wt %) was carefully poured into the 1 meter glass column, without creating any foam, which is called the receiver. A 200 mL pipette with the surfactant solution is placed 90 cm above the receiver and the solution is allowed to drop into the foam receiver. The height of the foam produced is measured immediately and after 5 minutes.

[2] = Surface tension by Wilhelmy plate tensiometer; CMC from break point of surface tension vs. log C; assay type: physicochemical; conditions: room temperature
Protocol: The solubility of the surfactants in water was assessed visually at room temperature. The mixture at each concentration was examined after at least 10 min of mild shaking and ultrasonic bath agitation to see if the surfactant completely dissolved. […] Surface tension was determined with a Wilhelmy Plate tensiometer (Cahn DCA-322) at room temperature. Glass slides manufactured by Corning with a width of 22 mm and thickness of 0.1 mm were used as probes. The motor speed was set to be 100 μm/sec. The CMC was determined from the break point of Υvs. log C diagram with a custom Microsoft Visual Basic program.

[3] = Hardness (calcium chloride) tolerance; assay type: physicochemical; conditions: for CaCl2 Tolerance / Hardness Tolerance: CaCl2 added, cooled to 4° C., heated to 25° C., visual
Protocol: The Krafft temperature of the surfactant with the concentration at the room temperature CMC was determined by cooling the solution to 4° C. and then raising the temperature by 1° C. steps and visually inspecting its phase behavior after the solution reached thermal equilibrium. For hardness tolerance, a known amount of calcium chloride was added to the solution prior to cooling to 4° C.

[4] = Krafft temperature determination; assay type: physicochemical; conditions: within 48 hours
Protocol: […] the solution to 4° C. and then raising the temperature by 1° C. steps and visually inspecting its phase behavior after the solution reached thermal equilibrium. For hardness tolerance, a known amount of calcium chloride was added to the solution prior to cooling to 4° C.

[5] = Draves wetting test (ASTM D2281-68); assay type: physicochemical
Protocol: The Draves wetting test was performed according to ASTM […]-68. 500 mL of surfactant solution was poured into a 500 mL graduated cylinder (38 cm in height), and a 5.0 g standard skein hooked with a lead anchor was dropped into the solution. The skein floats in the solution initially and sinks when wetted, and the time taken was recorded as the time of wetting.

[6] = Water solubility assessed visually at room temperature; assay type: physicochemical; conditions: in water, visual assessment
Protocol: Dowex MAC-3 resin (proton form) was swollen and neutralized with excess NaOH/water solution, and then assembled into a column. After the resin was balanced with 2 column volumes of 30 vol % water in ethanol, 1 column volume of a 0.1 g/mL acid in 30 vol % water in ethanol solution was loaded and incubated in the column for 10 min. Subsequently, the resin was rinsed with 2 column volumes of 30 vol % water in ethanol, and the eluent was collected. The pH of the 1 wt % solutions/suspensions of the solids increased from 4 to 8 after passing through the column. The solvent was then evaporated under vacuum at mild heat (40° C.) to provide the sodium carboxylate salts. The sodium salts were fully soluble in water (deionized with 18MΩ resistivity), while the starting carboxylic acids were insoluble. The solubility of the surfactants in water was assessed visually at room temperature. The mixture at each concentration was examined after at least 10 min of mild shaking and ultrasonic bath agitation to see if the surfactant completely dissolved. […] Surface tension was determined with a Wilhelmy Plate tensiometer (Cahn DCA-322) at room temperature. Glass slides manufactured by Corning with a width of 22 mm and thickness of 0.1 mm were used as probes. The motor speed was set to be 100 μm/sec. The CMC was determined from the break point of Υvs. log C diagram with a custom Microsoft Visual Basic program.

[7] = cited from earlier work; for CMC/C20: literature value (footnotes b, d)
[8] = literature value (footnotes a, b); cited from earlier work
[9] = literature value (footnote c); cited from earlier work
[10] = literature value (footnotes a, c); cited from earlier work

Compound	CMC [2] [mM]	CMC/C20 [2]	pC20 [2]	ΥCMC (surface tension at CMC) [2] [mN/m]	CaCl2 Tolerance [3] [µM]	Hardness Tolerance [3] [ppm as CaCO3]	Precipitation of 1 wt % solution in 4° C. water bath [4]	Draves wetting time of 0.1 wt % solution [5] [s]	Water Solubility [6]	CMC/C20 [7]	further results
CCCCCCCCCCCC(=O)OC(CCSC)C(=O)[O-].[Na+] (centres unmarked) [C12ESCOONa]	1.0	5.55	3.84	35	100	10	did not show precipitation	11	282 mM		Foam dissipation ([1]; foam height immediately and after 5 minutes): dissipates much faster; Foam height ([1]; versus SDS, SDBS, AES): comparable to the reference anionic surfactants; Calcium tolerance relative to the linear carboxylate (NaL) ([3]; versus NaL): approximately 2.5 orders of magnitude; Calcium tolerance relative to the linear sulfate SDS ([3]; versus SDS): about half an order of magnitude better; Draves wetting performance compared with references ([5]; 0.1 wt % solutions): outperformed NaL in wetting time with a comparable performance to SDS
CCCCCCCCCCCC(=O)OC(CC[S+](C)[O-])C(=O)[O-].[Na+] (centres unmarked) [C12ESOCOONa]	1.7	3.15	3.27	40	5000	500	did not show precipitation		>1000^ mM		Hardness tolerance (of CaCl2) ([3]; text of b163): 5000 µM; Hardness tolerance relative to the unoxidized form ([3]; versus C12ESCOONa): 50 times
CCCCCCCCCCCCCCCC(=O)OC(CC[S+](C)[O-])C(=O)[O-].[Na+] (centres unmarked) [C16ESOCOONa]	0.54	4.56	4.07	42	100	10	did not show precipitation		117 mM		
CCCCCCCCCCCC(=O)[O-].[Na+] [NaL, sodium laurate, reference compound]	19.1		3.32	30	0.5	0.05		52		38.5^b	solubility ([6]; thermodynamic from solid): 90 mM; Krafft Point [8]: 13^a ° C.
CCCCCCCCCCCCOS(=O)(=O)[O-].[Na+] [SDS, sodium dodecyl sulfate]								11		2.6^d	CaCl2 Tolerance [9]: 40^c μM; Hardness Tolerance [9]: 4^c ppm as CaCO3; CMC ([7]; literature value (footnote d)): 12.4^d mM; pC20 ([7]; literature value (footnote d)): 2.36^d; ΥCMC (surface tension at CMC) ([7]; literature value (footnote d)): 40^d mN/m
sodium dodecylbenzene sulfonate [SDBS, reference compound]	3.1	5.30	3.24	34							Water Solubility [10]: 575^a mM
